The source of these data is patent US11679108B2, “Aromatic heterocyclic compound, and pharmaceutical composition and use thereof” (GUANGZHOU HENOVCOM BIOSCIENCE CO., LTD., priority 2018, dated 2023).

The target in the test is T1, ATX in human plasma (Homo sapiens, UniProt Q13822).
T1 construct: blank plasma was derived from at least 6 individual people; from tissue; host or cells: human plasma (pooled from at least 6 individuals)
In words: Analysis in vitro: detection of LPA in human plasma for screening activity (LPA 18:2 by LC/MS/MS). The format is biochemical. Conditions: incubated 2 hours at 37° C., LPA 18:2 detected by LC/MS/MS. An excerpt:
Analysis In Vitro: Detection of LPA in Human Plasma for Screening Activity
Principle: LPC in plasma being used as a substrate, the produced LPA 18:2 (LPA 17:0 as an internal standard) is detected by LC/MS/MS quantitative analysis. At different concentrations of the compounds to be tested, the percentage of residual activity is obtained by the ratio of the production of LPA18:2 to that in the absence of the compounds to be tested, thereby calculating IC50 values.
Experiment procedures: blank plasma was derived from at least 6 individual people. The compounds to be tested were diluted from stock solution in 3-fold dilution gradient, to produce 8 concentrations of working solution (with zero) in series. 10 μL of the melting blank plasma samples were taken and iced methanol solution containing internal standard (LPA 17:0) was added to it, so that the mixture directedly performed protein precipitation, which served as a system control sample. 2 μL of the working solution in different concentration was taken and 198 μL of blank human plasma was added, which was incubated with a concentration of 0 to 10 μM. The samples were placed at an incubater containing 5% CO2 at 37° C., and incubated for 2 hours. When the incubation was completed, 10 μL of plasma sample was taken and appropriate volume of iced methanol solution containing internal standard (LPA 17:0) was added into it, so that the mixture directedly performed protein precipitation. The precipitation was centrifuged to take supernatant. LPA 18:2 was detected by LC/MS/MS and IC50 values were analyzed and calculated by software, seeing Table 2.

Regarding `CCc1nc2sc(N3CCN(CC(=O)N4CC(O)C4)C[C@H]3C)nn2c1N(C)c1nc(-c2ccc(F)cc2)c(C#N)s1` [Example 66, (R)-2-{[6-ethyl-2-(4-(2-(3-hydroxyazetidin-1-yl)-2-oxoethyl)-2-methylpiperazin-1-yl)imidazo[2,1-b][1,3,4]thiadiazol-5-yl](methyl)amino}-4-(4-fluorophenyl)thiazole-5-carbonitrile], the concentration for half-maximal inhibition (IC50) (commonly the concentration needed to halve the response being measured) lay in the range of 0.01 to 100 nM. As for `CCc1nc2sc(N3C[C@@H](C)N(CC(=O)N4CC(O)C4)C[C@H]3C)nn2c1N(C)c1nc(-c2ccc(F)cc2)c(C#N)s1` [Example 75, 2-{[6-ethyl-2-((2R,5R)-4-(2-(3-hydroxyazetidin-1-yl)-2-oxoethyl)-2,5-dimethylpiperazin-1-yl)imidazo[2,1-b][1,3,4]thiadiazol-5-yl](methyl)amino}-4-(4-fluorophenyl)thiazole-5-carbonitrile], the figure is 100 to 500 nM. As for `CCc1nc2sc(N3C[C@@H](C)N(CC(=O)N4CC(O)C4)[C@@H](C)C3)nn2c1N(C)c1nc(-c2ccc(F)cc2)c(C#N)s1` [Example 72, cis-2-{[6-ethyl-2-(4-(2-(3-hydroxyazetidin-1-yl)-2-oxoethyl)-3,5-dimethylpiperazin-1-yl)imidazo[2,1-b][1,3,4]thiadiazol-5-yl](methyl)amino}-4-(4-fluorophenyl)thiazole-5-carbonitrile], the figure is 100 to 500 nM. Next, `CCc1nc2sc(N3CCC(N(C)CC(=O)NCC(=O)OC)C3)nn2c1N(C)c1nc(-c2ccc(F)cc2)c(C#N)s1` (stereo not drawn) [Example 50]: 100 to 500 nM. Compound `CCc1nc2sc(N3CC4CC3CO4)nn2c1N(C)c1nc(-c2ccc(F)cc2)c(C#N)s1` (stereo not drawn) [Example 60, 2-{[2-(2-oxa-5-azabicyclo[2.2.1]heptan-5-yl)-6-ethylimidazo[2,1-b][1,3,4]thiadiazol-5-yl](methyl)amino}-4-(4-fluorophenyl)thiazole-5-carbonitrile] returned an IC50 of at least 1000 nM. As for `CCc1nc2sc(N3CC4(CN(C(N)=O)C4)C3)nn2c1N(C)c1nc(-c2ccc(F)cc2)c(C#N)s1` [Example 9, 6-{5-[(5-cyano-4-(4-fluorophenyl)thiazol-2-yl)(methyl)amino]-6-ethylimidazo[2,1-b][1,3,4]thiadiazol-2-yl}-2,6-diazaspiro[3.3]heptane-2-carboxamide], the figure is 500 to 1000 nM. `CCc1nc2sc(N3CCN(CC(=O)N4CC(O)C4)[C@H](C)C3)nn2c1N(C)c1nc(-c2ccc(F)cc2)c(C#N)s1` [Example 69, (R)-2-{[6-ethyl-2-(4-(2-(3-hydroxyazetidin-1-yl)-2-oxoethyl)-3-methylpiperazin-1-yl)imidazo[2,1-b][1,3,4]thiadiazol-5-yl](methyl)amino}-4-(4-fluorophenyl)thiazole-5-carbonitrile] yielded an IC50 of 100 to 500 nM. Next, `CCc1nc2sc(N3C[C@H](C)N(CC(=O)N4CC(O)C4)C[C@@H]3C)nn2c1N(C)c1nc(-c2ccc(F)cc2)c(C#N)s1` [Example 74, 2-{[6-ethyl-2-((2S,5S)-4-(2-(3-hydroxyazetidin-1-yl)-2-oxoethyl)-2,5-dimethylpiperazin-1-yl)imidazo[2,1-b][1,3,4]thiadiazol-5-yl](methyl)amino}-4-(4-fluorophenyl)thiazole-5-carbonitrile]: 0.01 to 100 nM; `CCc1nc2sc(N3CCC4(CN(CC(=O)N5CC(C#N)C5)C4)C3)nn2c1N(C)c1nc(-c2ccc(F)cc2)c(C#N)s1` [Example 55, 2-{[6-ethyl-2-(2-(2-(3-cyanoazetidin-1-yl)-2-oxoethyl)-2,6-diazaspiro[3.4]octane-6-yl)imidazo[2,1-b][1,3,4]thiadiazol-5-yl](methyl)amino}-4-(4-fluorophenyl)thiazole-5-carbonitrile]: 100 to 500 nM. Next, `CCc1nc2sc(N3CCN(CC(=O)N4CC(O)C4)C(C)(C)C3)nn2c1N(C)c1nc(-c2ccc(F)cc2)c(C#N)s1` [Example 65, 2-{[6-ethyl-2-(4-(2-(3-hydroxyazetidin-1-yl)-2-oxoethyl)-3,3-dimethylpiperazin-1-yl)imidazo[2,1-b][1,3,4]thiadiazol-5-yl](methyl)amino}-4-(4-fluorophenyl)thiazole-5-carbonitrile]: 0.01 to 100 nM; `CCc1nc2sc(N3CC4CCC(C3)N4CC(=O)N3CC(O)C3)nn2c1N(C)c1nc(-c2ccc(F)cc2)c(C#N)s1` [Example 70, 2-{[6-ethyl-2-(8-(2-(3-hydroxyazetidin-1-yl)-2-oxoethyl)-3,8-diazabicyclo[3.2.1]octan-3-yl)imidazo[2,1-b][1,3,4]thiadiazol-5-yl](methyl)amino}-4-(4-fluorophenyl)thiazole-5-carbonitrile]: 100 to 500 nM. Next, `CCc1nc2sc(N3CC4CCN(CC(=O)N5CC(O)C5)C4C3)nn2c1N(C)c1nc(-c2ccc(F)cc2)c(C#N)s1` (stereo not drawn) [Example 62, 2-{[6-ethyl-2-(1-(2-(3-hydroxyazetidin-1-yl)-2-oxoethyl)hexahydropyrrolo[3,4-b]pyrrol-5(1H)-yl)imidazo[2,1-b][1,3,4]thiadiazol-5-yl](methyl)amino}-4-(4-fluorophenyl)thiazole-5-carbonitrile]: 100 to 500 nM; `CCc1nc2sc(N3C[C@H](C)N(CC(=O)N4CC(O)C4)C[C@H]3C)nn2c1N(C)c1nc(-c2ccc(F)cc2)c(C#N)s1` (relative stereo) [Example 76, trans-2-{[6-ethyl-2-(4-(2-(3-hydroxyazetidin-1-yl)-2-oxoethyl)-2,5-dimethylpiperazin-1-yl)imidazo[2,1-b][1,3,4]thiadiazol-5-yl](methyl)amino}-4-(4-fluorophenyl)thiazole-5-carbonitrile]: 0.01 to 100 nM; `CCc1nc2sc(N3CCC(N(C)CC(=O)NCC(=O)O)C3)nn2c1N(C)c1nc(-c2ccc(F)cc2)c(C#N)s1` (stereo not drawn) [Example 51]: 100 to 500 nM. `CCc1nc2sc(N3CCC(NC(=O)N4CC(O)C4)C3)nn2c1N(C)c1nc(-c2ccc(F)cc2)c(C#N)s1` (stereo not drawn) [Example 64, N-{1-[5-((5-cyano-4-(4-fluorophenyl)thiazol-2-yl)(methyl)amino)-6-ethylimidazo[2,1-b][1,3,4]thiadiazol-2-yl]pyrrolidin-3-yl}-3-hydroxyazadetin-1-carboxamide] came in with an IC50 of 0.01 to 100 nM. Next, `CCc1nc2sc(N3CCN(CC(=O)N4CC(O)C4)C[C@@H]3C)nn2c1N(C)c1nc(-c2ccc(F)cc2)c(C#N)s1` [Example 67, (S)-2-{[6-ethyl-2-(4-(2-(3-hydroxyazetidin-1-yl)-2-oxoethyl)-2-methylpiperazin-1-yl)imidazo[2,1-b][1,3,4]thiadiazol-5-yl](methyl)amino}-4-(4-fluorophenyl)thiazole-5-carbonitrile]: 0.01 to 100 nM; `CCc1nc2sc(N3CC4CN(CC(=O)N5CC(C#N)C5)CC4C3)nn2c1N(C)c1nc(-c2ccc(F)cc2)c(C#N)s1` (stereo not drawn) [Example 57, 2-{[6-ethyl-2-(5-(2-(3-cyanoazetidin-1-yl)-2-oxoethyl)hexahydropyrrolo[3,4-c]pyrrol-2(1H)-yl)imidazo[2,1-b][1,3,4]thiadiazol-5-yl](methyl)amino}-4-(4-fluorophenyl)thiazole-5-carbonitrile]: 100 to 500 nM; `CCc1nc2sc(N3CCC(C(=O)N4CC(O)C4)CC3)nn2c1N(C)c1nc(-c2ccc(F)cc2)c(C#N)s1` [Example 79, 2-{[6-ethyl-2-(4-(3-hydroxyazetidin-1-carbonyl)piperidin-1-yl)imidazo[2,1-b][1,3,4]thiadiazol-5-yl](methyl)amino}-4-(4-fluorophenyl)thiazole-5-carbonitrile]: 100 to 500 nM. Next, `CCc1nc2sc(N3CC4(CCN(CC(=O)N5CC(O)C5)C4)C3)nn2c1N(C)c1nc(-c2ccc(F)cc2)c(C#N)s1` [Example 52, 2-{[6-ethyl-2-(6-(2-(3-hydroxyazetidin-1-yl)-2-oxoethyl)-2,6-diazaspiro[3.4]octan-2-yl)imidazo[2,1-b][1,3,4]thiadiazol-5-yl](methyl)amino}-4-(4-fluorophenyl)thiazole-5-carbonitrile]: 100 to 500 nM; `CCc1nc2sc(N3C[C@@H]4C[C@H]3CN4CC(=O)N3CC(C#N)C3)nn2c1N(C)c1nc(-c2ccc(F)cc2)c(C#N)s1` [Example 59, 2-{[6-ethyl-2-((1S,4S)-5-(2-(3-cyanoazetidin-1-yl)-2-oxoethyl)-2,5-diazabicyclo[2.2.1]heptan-2-yl)imidazo[2,1-b][1,3,4]thiadiazol-5-yl](methyl)amino}-4-(4-fluorophenyl)thiazole-5-carbonitrile]: 100 to 500 nM; `CCc1nc2sc(N3C[C@@H]4C[C@H]3CN4CC(=O)N3CC(O)C3)nn2c1N(C)c1nc(-c2ccc(F)cc2)c(C#N)s1` [Example 58, 2-{[6-ethyl-2-((1S,4S)-5-(2-(3-hydroxyazetidin-1-yl)-2-oxoethyl)-2,5-diazabicyclo[2.2.1]heptan-2-yl)imidazo[2,1-b][1,3,4]thiadiazol-5-yl](methyl)amino}-4-(4-fluorophenyl)thiazole-5-carbonitrile]: 0.01 to 100 nM.
